From patent US20070173478A1, “Compositions for the enhanced treatment of depression” (WWK TRUST, priority 2003, published 2007) come the findings set out here.

For this data set, the system named is chronic endogenous depression. Briefly: Case #1: patient with chronic endogenous depression. Format: in vivo, human. The settings on record: person.

`CNCCC(Oc1ccc(C(F)(F)F)cc1)c1ccccc1` (stereo not drawn) [fluoxetine]: for the setting “30 mg fluoxetine once daily, before the combination”, the “antidepressant effect of fluoxetine alone” value is on record as “requiring increasing doses to sustain antidepressant effects”.

With `CN(C)CC/C=C1\c2ccccc2CSc2ccccc21` [prothiaden], under “previous treatment”, the “effect of previous treatment” value is recorded as “relatively ineffective” and the “side effects of previous treatment” value is given as “complained of side effects”.
